Measurements reported in patent US20070196294A1, “Photostable sunscreen compositions comprising dibenzoylmethane compound UV-A filters and s-triazine compounds” (L'OREAL, priority 2006, published 2007).

Assay: Photostability of formulations on PMMA sheets exposed in a Heraeus Suntest
Format: physicochemical
Settings: formulations 9 and 10 versus control formulation 8
Experimental: Method for Measuring the Photostability:
For each formulation, constituents given in % by weight, 3 test samples and 3 control samples were prepared. 2 mg/cm^2 of formulation are deposited on poly(methyl methacrylate) sheets using a spatula.
The test sheets are exposed for 38 min to a Heraeus Suntest equipped with a xenon lamp having a UV-A flux of 9.51×10^−3 W/cm^2 and a UV-B flux of 5.43×10^−4 W/cm^2. The control sheets are stored for the same time and at the same temperature (38-40° C.) in darkness.
At the end of this time, the screening agents are extracted by immersing each sheet in 50 g of methanol and by subjecting them to ultrasound for 15 min in order to provide for good extraction. The solutions obtained are analyzed by HPLC and UV spectrophotometry.
For each formulation tested, the residual 4-(tert-butyl)-4′-methoxydibenzoylmethane level after exposure is given in the ratio of its optical density (OD) in the exposed sample to its unexposed optical density (OD). The positions adopted are the absorption maxima corresponding to butyl-methoxy-dibenzoylmethane: λmax=358 nm.

In the case of `CCCCOC(=O)c1ccc(Nc2nc(Nc3ccc(C=C(C(=O)OCC(C)(C)C)C(=O)OCC(C)(C)C)cc3)nc(Nc3ccc(C=C(C(=O)OCC(C)(C)C)C(=O)OCC(C)(C)C)cc3)n2)cc1` [Example 1, 2,4-bis(dineopentyl 4′-aminobenzalmalonate)-6-(butyl 4″-aminobenzoate)-s-triazine], the “Photostability of the dibenzoylmethane in the presence of the compound (result in words)” value is reported as “improvement in the photostability of the dibenzoylmethane”.
